Laboratory results: the CheMixHub viscosity set
± gives the uncertainty stated by the source.

Test: xn = mol fraction of the nth substance listed

ClC(Cl)(Cl)Cl + CO
Conditions | viscosity [mPa·s]
298 K, 101.3 kPa, x1 = 0.1518 | 0.719 ± 0.009
298 K, 101.3 kPa, x1 = 0.2927 | 0.809 ± 0.01
298 K, 101.3 kPa, x1 = 0.4346 | 0.844 ± 0.01
298 K, 101.3 kPa, x1 = 0.5445 | 0.874 ± 0.01
298 K, 101.3 kPa, x1 = 0.6871 | 0.875 ± 0.009
298 K, 101.3 kPa, x1 = 0.761 | 0.858 ± 0.009
298 K, 101.3 kPa, x1 = 0.8784 | 0.867 ± 0.009
298.15 K, 101 kPa, x2 = 0.0367 | 0.877 ± 0.008
298.15 K, 101 kPa, x2 = 0.0708 | 0.871 ± 0.008
298.15 K, 101 kPa, x2 = 0.0886 | 0.869 ± 0.008
298.15 K, 101 kPa, x2 = 0.1063 | 0.865 ± 0.008
298.15 K, 101 kPa, x2 = 0.2 | 0.858 ± 0.023
298.15 K, 101 kPa, x2 = 0.2104 | 0.8395 ± 0.018
298.15 K, 101 kPa, x2 = 0.2547 | 0.857 ± 0.008
298.15 K, 101 kPa, x2 = 0.35 | 0.854 ± 0.022
298.15 K, 101 kPa, x2 = 0.375 | 0.8288 ± 0.018
298.15 K, 101 kPa, x2 = 0.4226 | 0.842 ± 0.008
298.15 K, 101 kPa, x2 = 0.46 | 0.846 ± 0.022
298.15 K, 101 kPa, x2 = 0.4787 | 0.839 ± 0.008
298.15 K, 101 kPa, x2 = 0.5069 | 0.8105 ± 0.017
298.15 K, 101 kPa, x2 = 0.55 | 0.831 ± 0.022
298.15 K, 101 kPa, x2 = 0.5618 | 0.815 ± 0.008
298.15 K, 101 kPa, x2 = 0.6107 | 0.807 ± 0.008
298.15 K, 101 kPa, x2 = 0.6154 | 0.7666 ± 0.016
298.15 K, 101 kPa, x2 = 0.6934 | 0.77 ± 0.008
298.15 K, 101 kPa, x2 = 0.7057 | 0.7387 ± 0.016
298.15 K, 101 kPa, x2 = 0.76 | 0.764 ± 0.02
298.15 K, 101 kPa, x2 = 0.7826 | 0.7057 ± 0.015
298.15 K, 101 kPa, x2 = 0.7853 | 0.719 ± 0.007
298.15 K, 101 kPa, x2 = 0.83 | 0.702 ± 0.019
298.15 K, 101 kPa, x2 = 0.8483 | 0.6886 ± 0.015
298.15 K, 101 kPa, x2 = 0.88 | 0.665 ± 0.018
298.15 K, 101 kPa, x2 = 0.9029 | 0.626 ± 0.006
298.15 K, 101 kPa, x2 = 0.9057 | 0.6477 ± 0.014
298.15 K, 101 kPa, x2 = 0.9065 | 0.6438 ± 0.0059
298.15 K, 101 kPa, x2 = 0.95 | 0.599 ± 0.016
298.15 K, 101 kPa, x2 = 0.9555 | 0.5806 ± 0.013
298.15 K, 101 kPa, x2 = 0.9571 | 0.5875 ± 0.0055
298.15 K, 101 kPa, x2 = 0.9616 | 0.577 ± 0.006
298.15 K, 101 kPa, x2 = 0.9788 | 0.5672 ± 0.0053
303.15 K, 101 kPa, x1 = 0.0355 | 0.54 ± 0.014
303.15 K, 101 kPa, x1 = 0.1574 | 0.594 ± 0.016
303.15 K, 101 kPa, x1 = 0.2723 | 0.665 ± 0.018
303.15 K, 101 kPa, x1 = 0.4653 | 0.71 ± 0.019
303.15 K, 101 kPa, x1 = 0.6066 | 0.76 ± 0.02
303.15 K, 101 kPa, x1 = 0.7506 | 0.766 ± 0.02
303.15 K, 101 kPa, x1 = 0.901 | 0.78 ± 0.021
303.15 K, 101 kPa, x2 = 0.0396 | 0.8187 ± 0.0066
303.15 K, 101 kPa, x2 = 0.0862 | 0.8054 ± 0.0064
303.15 K, 101 kPa, x2 = 0.1437 | 0.7973 ± 0.0063
303.15 K, 101 kPa, x2 = 0.2352 | 0.793 ± 0.0062
303.15 K, 101 kPa, x2 = 0.3077 | 0.7919 ± 0.0061
303.15 K, 101 kPa, x2 = 0.4129 | 0.7852 ± 0.0059
303.15 K, 101 kPa, x2 = 0.531 | 0.7677 ± 0.0057
303.15 K, 101 kPa, x2 = 0.6187 | 0.7443 ± 0.0054
303.15 K, 101 kPa, x2 = 0.6838 | 0.7184 ± 0.0052
303.15 K, 101 kPa, x2 = 0.824 | 0.6435 ± 0.0047
303.15 K, 101 kPa, x2 = 0.8821 | 0.6038 ± 0.0044
303.15 K, 101 kPa, x2 = 0.9292 | 0.5669 ± 0.0041
303.15 K, 101 kPa, x2 = 0.9728 | 0.5306 ± 0.0039
308.15 K, 101 kPa, x2 = 0.0367 | 0.764 ± 0.007
308.15 K, 101 kPa, x2 = 0.0708 | 0.756 ± 0.007
308.15 K, 101 kPa, x2 = 0.0886 | 0.755 ± 0.007
308.15 K, 101 kPa, x2 = 0.1063 | 0.749 ± 0.007
308.15 K, 101 kPa, x2 = 0.2547 | 0.738 ± 0.007
308.15 K, 101 kPa, x2 = 0.4226 | 0.724 ± 0.007
308.15 K, 101 kPa, x2 = 0.4787 | 0.72 ± 0.007
308.15 K, 101 kPa, x2 = 0.5618 | 0.7 ± 0.007
308.15 K, 101 kPa, x2 = 0.6107 | 0.691 ± 0.007
308.15 K, 101 kPa, x2 = 0.6934 | 0.656 ± 0.007
308.15 K, 101 kPa, x2 = 0.7853 | 0.619 ± 0.006
308.15 K, 101 kPa, x2 = 0.9029 | 0.543 ± 0.006
308.15 K, 101 kPa, x2 = 0.9616 | 0.502 ± 0.005
313.15 K, 101 kPa, x1 = 0.0355 | 0.54 ± 0.014
313.15 K, 101 kPa, x1 = 0.1574 | 0.594 ± 0.016
313.15 K, 101 kPa, x1 = 0.2723 | 0.665 ± 0.018
313.15 K, 101 kPa, x1 = 0.4653 | 0.71 ± 0.019
313.15 K, 101 kPa, x1 = 0.6066 | 0.76 ± 0.02
313.15 K, 101 kPa, x1 = 0.7506 | 0.766 ± 0.02
313.15 K, 101 kPa, x1 = 0.901 | 0.78 ± 0.021
313.15 K, 101.33 kPa, x2 = 0.105 | 0.7595 ± 0.02
313.15 K, 101.33 kPa, x2 = 0.193 | 0.7624 ± 0.02
313.15 K, 101.33 kPa, x2 = 0.303 | 0.75 ± 0.02
313.15 K, 101.33 kPa, x2 = 0.35 | 0.7427 ± 0.019
313.15 K, 101.33 kPa, x2 = 0.51 | 0.6955 ± 0.018
313.15 K, 101.33 kPa, x2 = 0.68 | 0.6248 ± 0.016
313.15 K, 101.33 kPa, x2 = 0.72 | 0.605 ± 0.016
313.15 K, 101.33 kPa, x2 = 0.79 | 0.57 ± 0.015
313.15 K, 101.33 kPa, x2 = 0.91 | 0.505 ± 0.013
318 K, 101.3 kPa, x1 = 0.1527 | 0.5328 ± 0.021
318 K, 101.3 kPa, x1 = 0.2949 | 0.6044 ± 0.023
318 K, 101.3 kPa, x1 = 0.4375 | 0.6446 ± 0.024
318 K, 101.3 kPa, x1 = 0.5566 | 0.6729 ± 0.025
318 K, 101.3 kPa, x1 = 0.7077 | 0.69 ± 0.025
318 K, 101.3 kPa, x1 = 0.8931 | 0.7164 ± 0.026
318.15 K, 101 kPa, x2 = 0.0367 | 0.672 ± 0.007
318.15 K, 101 kPa, x2 = 0.0708 | 0.664 ± 0.007
318.15 K, 101 kPa, x2 = 0.0886 | 0.67 ± 0.007
318.15 K, 101 kPa, x2 = 0.1063 | 0.657 ± 0.007
318.15 K, 101 kPa, x2 = 0.2547 | 0.643 ± 0.006
318.15 K, 101 kPa, x2 = 0.4226 | 0.63 ± 0.006
318.15 K, 101 kPa, x2 = 0.4787 | 0.623 ± 0.006
318.15 K, 101 kPa, x2 = 0.5618 | 0.607 ± 0.006
318.15 K, 101 kPa, x2 = 0.6107 | 0.598 ± 0.006
318.15 K, 101 kPa, x2 = 0.6934 | 0.57 ± 0.006
318.15 K, 101 kPa, x2 = 0.7853 | 0.537 ± 0.006
318.15 K, 101 kPa, x2 = 0.9029 | 0.476 ± 0.005
318.15 K, 101 kPa, x2 = 0.9616 | 0.44 ± 0.005
323.15 K, 101 kPa, x1 = 0.0355 | 0.51 ± 0.014
323.15 K, 101 kPa, x1 = 0.1574 | 0.543 ± 0.014
323.15 K, 101 kPa, x1 = 0.2723 | 0.612 ± 0.016
323.15 K, 101 kPa, x1 = 0.4653 | 0.642 ± 0.017
323.15 K, 101 kPa, x1 = 0.6066 | 0.682 ± 0.018
323.15 K, 101 kPa, x1 = 0.7506 | 0.698 ± 0.018
323.15 K, 101 kPa, x1 = 0.901 | 0.706 ± 0.019
